ChEMBL document CHEMBL4219126, “Synthesis and biological evaluation of benzocyclobutane-C-glycosides as potent and orally active SGLT1/SGLT2 dual inhibitors” (Bioorg Med Chem Lett, 2018)
Calls of active or inactive are those of the source. The rule behind the calls is not given here.

What was measured:
[1] = Cmax in mouse at 5 mg/kg, iv; format: ADME, organism-based; design: dose 5 mg/kg, route intravenous; settings: in vivo
[2] = Cmax in mouse at 20 mg/kg administered via oral gavage; format: ADME, organism-based; design: dose 20 mg/kg, route oral; settings: in vivo
[3] = Terminal half life in mouse at 5 mg/kg, iv; format: ADME, organism-based; settings: in vivo, read-out: beta t1/2 (converted)
[4] = Terminal half life in mouse at 20 mg/kg administered via oral gavage; format: ADME, organism-based; settings: in vivo, read-out: beta t1/2 (converted)
[5] = AUC (infinity) in mouse at 5 mg/kg, iv; format: ADME, organism-based; design: dose 5 mg/kg, time infinity, route intravenous; settings: in vivo
[6] = AUC (infinity) in mouse at 20 mg/kg administered via oral gavage; format: ADME, organism-based; design: dose 20 mg/kg, route oral, time infinity; settings: in vivo
[7] = Volume of distribution at steady state in mouse at 5 mg/kg, iv; format: ADME, organism-based; settings: in vivo, read-out: Vdss
[8] = Systemic clearance in mouse at 5 mg/kg, iv; format: ADME, organism-based; settings: in vivo
[9] = Oral bioavailability in mouse at 20 mg/kg; format: ADME, organism-based; settings: in vivo
[10] = Cmax in rat at 2 mg/kg, iv; format: ADME, organism-based; design: dose 2 mg/kg, route intravenous; settings: in vivo
[11] = Cmax in rat at 10 mg/kg administered via oral gavage; format: ADME, organism-based; design: dose 10 mg/kg, route oral; settings: in vivo
[12] = Terminal half life in rat at 2 mg/kg, iv; format: ADME, organism-based; settings: in vivo, read-out: beta t1/2 (converted)
[13] = Terminal half life in rat at 10 mg/kg administered via oral gavage; format: ADME, organism-based; settings: in vivo, read-out: beta t1/2 (converted)
[14] = AUC (infinity) in rat at 2 mg/kg, iv; format: ADME, organism-based; design: dose 2 mg/kg, time infinity, route intravenous; settings: in vivo
[15] = AUC (infinity) in rat at 10 mg/kg administered via oral gavage; format: ADME, organism-based; design: dose 10 mg/kg, route oral, time infinity; settings: in vivo
[16] = Volume of distribution at steady state in rat at 2 mg/kg, iv; format: ADME, organism-based; settings: in vivo, read-out: Vdss
[17] = Systemic clearance in rat at 2 mg/kg, iv; format: ADME, organism-based; settings: in vivo
[18] = Oral bioavailability in rat at 10 mg/kg; format: ADME, organism-based; settings: in vivo
[19] = Cmax in dog at 2 mg/kg, iv; format: ADME, organism-based, Canis lupus familiaris; design: dose 2 mg/kg, route intravenous; settings: in vivo
[20] = Cmax in dog at 10 mg/kg administered via oral gavage; format: ADME, organism-based, Canis lupus familiaris; design: dose 10 mg/kg, route oral; settings: in vivo
[21] = Terminal half life in dog at 2 mg/kg, iv; format: ADME, organism-based, Canis lupus familiaris; settings: in vivo, read-out: beta t1/2 (converted)
[22] = Terminal half life in dog at 10 mg/kg administered via oral gavage; format: ADME, organism-based, Canis lupus familiaris; settings: in vivo, read-out: beta t1/2 (converted)
[23] = AUC (infinity) in dog at 2 mg/kg, iv; format: ADME, organism-based, Canis lupus familiaris; design: dose 2 mg/kg, time infinity, route intravenous; settings: in vivo
[24] = AUC (infinity) in dog at 10 mg/kg administered via oral gavage; format: ADME, organism-based, Canis lupus familiaris; design: dose 10 mg/kg, route oral, time infinity; settings: in vivo
[25] = Volume of distribution at steady state in dog at 2 mg/kg, iv; format: ADME, organism-based, Canis lupus familiaris; settings: in vivo, read-out: Vdss
[26] = Systemic clearance in dog at 2 mg/kg, iv; format: ADME, organism-based, Canis lupus familiaris; settings: in vivo
[27] = Oral bioavailability in dog at 10 mg/kg; format: ADME, organism-based, Canis lupus familiaris; settings: in vivo
[28] = Cmax in monkey at 2 mg/kg, iv; format: ADME, organism-based, Macaca mulatta; design: dose 2 mg/kg, route intravenous; settings: rhesus monkey, in vivo
[29] = Cmax in monkey at 10 mg/kg administered via oral gavage; format: ADME, organism-based, Macaca mulatta; design: dose 10 mg/kg, route oral; settings: rhesus monkey, in vivo
[30] = Terminal half life in monkey at 2 mg/kg, iv; format: ADME, organism-based, Macaca mulatta; settings: rhesus monkey, in vivo, read-out: beta t1/2 (converted)
[31] = Terminal half life in monkey at 10 mg/kg administered via oral gavage; format: ADME, organism-based, Macaca mulatta; settings: rhesus monkey, in vivo, read-out: beta t1/2 (converted)
[32] = AUC (infinity) in monkey at 2 mg/kg, iv; format: ADME, organism-based, Macaca mulatta; design: dose 2 mg/kg, route intravenous, time infinity; settings: rhesus monkey, in vivo
[33] = AUC (infinity) in monkey at 10 mg/kg administered via oral gavage; format: ADME, organism-based, Macaca mulatta; design: dose 10 mg/kg, time infinity, route oral; settings: rhesus monkey, in vivo
[34] = Volume of distribution at steady state in monkey at 2 mg/kg, iv; format: ADME, organism-based, Macaca mulatta; settings: rhesus monkey, in vivo, read-out: Vdss
[35] = Systemic clearance in monkey at 2 mg/kg, iv; format: ADME, organism-based, Macaca mulatta; settings: rhesus monkey, in vivo
[36] = Oral bioavailability in monkey at 10 mg/kg; format: ADME, organism-based, Macaca mulatta; settings: rhesus monkey, in vivo
Rattus norvegicus [37] = test: Antidiabetic activity in Sprague-Dawley rat assessed as decrease in postprandial blood glucose level administered 1 hr prior to glucose challenge measured up to 120 mins by OGTT; format: functional, organism-based
Rattus norvegicus [38] = test: Antihyperglycemic activity in diabetic ZDF rat assessed as decrease in fed blood glucose levels at 10 mg/kg measured up to 24 hrs; format: functional, organism-based
[39] = molecular target: T1, Sodium/glucose cotransporter 1 (Homo sapiens) (UniProt P13866); test: Inhibition of human small intestinal SGLT1 expressed in CHOK1 cells assessed as decrease in [14C]-AMG uptake at 300 nM preincubated for 10 mins followed by [14C]-AMG addition and measured after 2 hrs by TopCount method relative to control; format: cell-based
T1 sequence (whole entry): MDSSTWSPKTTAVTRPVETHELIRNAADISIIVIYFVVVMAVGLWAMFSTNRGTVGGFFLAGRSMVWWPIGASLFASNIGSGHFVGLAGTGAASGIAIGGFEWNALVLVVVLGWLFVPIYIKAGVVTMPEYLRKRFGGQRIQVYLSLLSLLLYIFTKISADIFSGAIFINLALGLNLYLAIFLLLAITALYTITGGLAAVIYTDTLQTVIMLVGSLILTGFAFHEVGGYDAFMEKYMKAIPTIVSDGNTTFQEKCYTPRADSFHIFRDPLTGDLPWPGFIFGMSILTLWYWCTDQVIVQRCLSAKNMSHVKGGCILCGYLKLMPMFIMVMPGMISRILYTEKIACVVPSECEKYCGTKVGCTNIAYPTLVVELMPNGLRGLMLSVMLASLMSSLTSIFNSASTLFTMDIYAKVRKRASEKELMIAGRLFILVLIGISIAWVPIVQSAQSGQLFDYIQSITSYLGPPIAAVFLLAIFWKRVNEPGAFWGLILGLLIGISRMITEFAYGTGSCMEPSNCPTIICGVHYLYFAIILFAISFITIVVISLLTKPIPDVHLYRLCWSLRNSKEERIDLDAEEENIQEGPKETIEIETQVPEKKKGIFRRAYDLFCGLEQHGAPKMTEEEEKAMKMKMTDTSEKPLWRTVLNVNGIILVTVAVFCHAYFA

[40] = molecular target: T2, Sodium/glucose cotransporter 2 (Homo sapiens) (UniProt P31639); test: Inhibition of human kidney SGLT2 expressed in CHOK1 cells assessed as decrease in [14C]-AMG uptake at 30 nM preincubated for 10 mins followed by [14C]-AMG addition and measured after 2 hrs by TopCount method relative to control; format: cell-based
T2 sequence (whole entry): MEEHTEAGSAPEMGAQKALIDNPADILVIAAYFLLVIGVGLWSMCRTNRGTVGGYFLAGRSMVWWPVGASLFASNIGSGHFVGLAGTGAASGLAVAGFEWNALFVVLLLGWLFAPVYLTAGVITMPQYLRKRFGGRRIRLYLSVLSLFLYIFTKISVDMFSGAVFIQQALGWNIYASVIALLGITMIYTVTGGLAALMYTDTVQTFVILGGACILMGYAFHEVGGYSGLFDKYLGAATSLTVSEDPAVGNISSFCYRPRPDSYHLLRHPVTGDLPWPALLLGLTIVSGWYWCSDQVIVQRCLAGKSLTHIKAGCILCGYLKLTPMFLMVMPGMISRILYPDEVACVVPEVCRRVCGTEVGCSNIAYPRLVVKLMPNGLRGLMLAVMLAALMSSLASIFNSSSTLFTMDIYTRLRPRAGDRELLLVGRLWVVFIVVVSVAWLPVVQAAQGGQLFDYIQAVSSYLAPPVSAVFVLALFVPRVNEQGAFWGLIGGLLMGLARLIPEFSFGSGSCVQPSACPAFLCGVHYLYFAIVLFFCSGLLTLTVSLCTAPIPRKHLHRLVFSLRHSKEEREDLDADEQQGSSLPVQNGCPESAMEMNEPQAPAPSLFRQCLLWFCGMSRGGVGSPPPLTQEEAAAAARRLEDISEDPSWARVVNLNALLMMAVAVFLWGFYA

Rattus norvegicus [41] = test: Antidiabetic activity in Sprague-Dawley rat assessed as decrease in plasma glucose AUC (0 to 120 mins) administered 1 hr prior to U13C6-glucose challenge by OGTT; format: functional, organism-based
Rattus norvegicus [42] = test: Antidiabetic activity in Sprague-Dawley rat assessed as increase in urinary glucose excrection administered 1 hr prior to U13C6-glucose challenge measured up to 4 hrs by OGTT; format: functional, organism-based

Compound | Cmax [1] [ng/mL] | Cmax [2] [ng/mL] | half-life [3] [h] | half-life [4] [h] | AUC(0-inf) [5] [ng·h/mL] | AUC(0-inf) [6] [ng·h/mL] | Vd [7] [L/kg] | clearance [8] [mL/min/kg] | bioavailability [9] [%] | Cmax [10] [ng/mL] | Cmax [11] [ng/mL] | half-life [12] [h] | half-life [13] [h] | AUC(0-inf) [14] [ng·h/mL] | AUC(0-inf) [15] [ng·h/mL] | Vd [16] [L/kg] | clearance [17] [mL/min/kg] | bioavailability [18] [%] | inhibition [39] [%] | inhibition [40] [%] | other results
Cc1cc(O)c([C@@H]2O[C@H](CO)[C@@H](O)[C@H](O)[C@H]2O)cc1Cc1ccc2c(c1)CC2 | 8200 | 4760 | 1.25 | 2.68 | 4560 | 11500 | 1.06 | 18.3 | 62.8 | 2110 | 717 | 1.27 | 2.22 | 697 | 1790 | 2.18 | 47.8 | 49 | – | – | Activity (Rattus norvegicus [41]): Dose-dependent effect; Activity (Rattus norvegicus [42]): Dose-dependent effect
COc1cc(C2CC2)c(Cc2ccc3c(c2)CC3)cc1[C@@H]1O[C@H](CO)[C@@H](O)[C@H](O)[C@H]1O | – | – | – | – | – | – | – | – | – | – | – | – | – | – | – | – | – | – | 67 | 31 | –
CN(C)c1ccc([C@@H]2O[C@H](CO)[C@@H](O)[C@H](O)[C@H]2O)cc1Cc1ccc2c(c1)CC2 | – | – | – | – | – | – | – | – | – | – | – | – | – | – | – | – | – | – | 67 | 35 | –

Continued, in another order:

Cmax [1] [ng/mL] | Cmax [2] [ng/mL] | half-life [3] [h] | half-life [4] [h] | AUC(0-inf) [5] [ng·h/mL] | AUC(0-inf) [6] [ng·h/mL] | Vd [7] [L/kg] | clearance [8] [mL/min/kg] | bioavailability [9] [%] | Cmax [10] [ng/mL] | Cmax [11] [ng/mL] | half-life [12] [h] | half-life [13] [h] | AUC(0-inf) [14] [ng·h/mL] | AUC(0-inf) [15] [ng·h/mL] | Vd [16] [L/kg] | clearance [17] [mL/min/kg] | bioavailability [18] [%] | inhibition [39] [%] | inhibition [40] [%] | Compound | other results
5870 | 5680 | 2.42 | 3.29 | 6390 | 25500 | 2.19 | 13 | 99 | 1110 | 634 | 2.17 | 2.48 | 697 | 2650 | 4.01 | 48.3 | 78 | – | – | OC[C@H]1O[C@@H](c2ccc(Cl)c(Cc3ccc4c(c3)CC4)c2)[C@H](O)[C@@H](O)[C@@H]1O | Cmax [19]: 9600 ng/mL; Cmax [20]: 20100 ng/mL; half-life [21]: 7.93 h; half-life [22]: 12.8 h; AUC(0-inf) [23]: 50800 ng·h/mL; AUC(0-inf) [24]: 332000 ng·h/mL; Vd [25]: 0.4 L/kg; clearance [26]: 0.68 mL/min/kg; bioavailability [27]: 107%; Cmax [28]: 9110 ng/mL; Cmax [29]: 7180 ng/mL; half-life [30]: 4.71 h; half-life [31]: 4.45 h; AUC(0-inf) [32]: 9210 ng·h/mL; AUC(0-inf) [33]: 40500 ng·h/mL; Vd [34]: 0.91 L/kg; clearance [35]: 3.74 mL/min/kg; bioavailability [36]: 88%; Activity (Rattus norvegicus [37]): Active; Activity (Rattus norvegicus [38]): Active
– | – | – | – | – | – | – | – | – | – | – | – | – | – | – | – | – | – | 5 | 23 | OC[C@H]1O[C@@H](c2cccc(Cc3ccc4c(c3)CC4)c2)[C@H](O)[C@@H](O)[C@@H]1O | –
– | – | – | – | – | – | – | – | – | – | – | – | – | – | – | – | – | – | 0 | 43 | N#Cc1ccc([C@@H]2O[C@H](CO)[C@@H](O)[C@H](O)[C@H]2O)cc1Cc1ccc2c(c1)CC2 | –
